From PMC12396409, “Screening and hit evaluation of a microbial metabolite library against the pathogenic Plasmodium falciparum and Toxoplasma gondii parasites” (International Journal for Parasitology: Drugs and Drug …, 2025)
Like-named read-outs stand apart in the source and are kept apart here. Where a SMILES comes first, the peptide text is derived from it. [ ]: non-standard residue; d: D form. Aoe = N[C@@H](CCCCCC(=O)[C@@H]1CO1)C(=O)O; Phe(ol) = N[C@H](CO)Cc1ccccc1; Aib = CC(C)(N)C(=O)O

How the values were obtained:
[1] = tested on: P. falciparum 3D7 parasites; experiment: P. falciparum growth inhibition assay, 2-cycle (120 h treatment), delayed-death screen and dose-response; format: cell-based, Plasmodium falciparum
[2] = tested on: P. falciparum 3D7 parasites; experiment: P. falciparum growth inhibition assay, 1-cycle (72 h treatment), SYBR DNA staining (library screen at 2 μg/mL and dose-response); format: cell-based, Plasmodium falciparum
[3] = tested on: T. gondii RH strain (RH-Tub-eYFP) tachyzoites; experiment: microbe, parasite or virus in culture; format: cell-based, Toxoplasma gondii
[4] = Plasmodium falciparum, 3D7, library screen at 2 μg/mL, 120 h, % growth, replicate 1, read-out: Pf_120h_%Growth_Rep1
[5] = Plasmodium falciparum, 3D7, library screen at 2 μg/mL, 120 h, % growth, replicate 2, read-out: Pf_120h_%Growth_Rep2
[6] = Plasmodium falciparum, 3D7, library screen at 2 μg/mL, 72 h, % growth, replicate 1, read-out: Pf_72h_%Growth_Rep1
[7] = Plasmodium falciparum, 3D7, library screen at 2 μg/mL, 72 h, % growth, replicate 2, read-out: Pf_72h_%Growth_Rep2
[8] = Toxoplasma gondii; library screen at 2 μg/mL, 72 h, % growth, replicate 1; read-out: Tg_72h_%Growth_Rep1
[9] = Toxoplasma gondii; library screen at 2 μg/mL, 72 h, % growth, replicate 2; read-out: Tg_72h_%Growth_Rep2
[10] = library screen at 2 μg/mL, 120 h, % growth, replicate 1
[11] = library screen at 2 μg/mL, 120 h, % growth, replicate 2
[12] = library screen at 2 μg/mL, 72 h, % growth, replicate 1
[13] = library screen at 2 μg/mL, 72 h, % growth, replicate 2
[14] = Plasmodium falciparum, 3D7, 120 h, library screen at 2 μg/mL, 120 h, % growth, replicate 1, read-out: Pf_120h_%Growth_Rep1
[15] = Plasmodium falciparum, 3D7, 120 h, library screen at 2 μg/mL, 120 h, % growth, replicate 2, read-out: Pf_120h_%Growth_Rep2
[16] = Plasmodium falciparum, 3D7, 72 h, library screen at 2 μg/mL, 72 h, % growth, replicate 1, read-out: Pf_72h_%Growth_Rep1
[17] = Plasmodium falciparum, 3D7, 72 h, library screen at 2 μg/mL, 72 h, % growth, replicate 2, read-out: Pf_72h_%Growth_Rep2
[18] = Toxoplasma gondii, 72 h, library screen at 2 μg/mL, 72 h, % growth, replicate 1; read-out: Tg_72h_%Growth_Rep1
[19] = Toxoplasma gondii, 72 h, library screen at 2 μg/mL, 72 h, % growth, replicate 2; read-out: Tg_72h_%Growth_Rep2

Row | Compound | Pf_120h_%Growth_Rep1 [1, 10] [%] | Pf_120h_%Growth_Rep2 [1, 11] [%] | Pf_72h_%Growth_Rep1 [2, 12] [%] | Pf_72h_%Growth_Rep2 [2, 13] [%] | Tg_72h_%Growth_Rep1 [3, 12] [%] | Tg_72h_%Growth_Rep2 [3, 13] [%] | other results
1 | CC(=O)NC(C)(C)C(=O)N1CCC[C@H]1C(=O)NC(C)(C)C(=O)N[C@@H](C)C(=O)NC(C)(C)C(=O)N[C@@H](C)C(=O)N[C@@H](CCC(N)=O)C(=O)NC(C)(C)C(=O)N[C@H](C(=O)NC(C)(C)C(=O)NCC(=O)N[C@@H](CC(C)C)C(=O)NC(C)(C)C(=O)N1CCC[C@H]1C(=O)N[C@H](C(=O)NC(C)(C)C(=O)NC(C)(C)C(=O)N[C@@H](CCC(N)=O)C(=O)N[C@@H](CCC(N)=O)C(=O)N[C@H](CO)Cc1ccccc1)C(C)C)C(C)C [Alamethicin F50] (Ac-[Aib]P[Aib]A[Aib]AQ[Aib]V[Aib]GL[Aib]PV[Aib][Aib]QQ[Phe(ol)]) | – | – | – | – | – | – | 3) Fold change (72 h/120 h) ([1]; P. falciparum, growth at 72 h / growth at 120 h, 2 μg/mL): 6.4; activity at 2 µg/mL ([1]; Plasmodium falciparum, 3D7; P. falciparum, 2 μg/mL, 120 h; read-out: 2) Growth (%) at 120 h): 3.45%; activity at 2 µg/mL [1, 4]: 8.66%; activity at 2 µg/mL [1, 5]: -1.76%; activity at 2 µg/mL ([2]; Plasmodium falciparum, 3D7; P. falciparum, 2 μg/mL, 72 h; read-out: 1) Growth (%) at 72 h): 22%; activity at 2 µg/mL [2, 6]: 21.9%; activity at 2 µg/mL [2, 7]: 22.1%; percent parasite growth at 2 µg/mL [3, 8]: 92.3%; percent parasite growth at 2 µg/mL [3, 9]: 87.6%
2 | C[C@@H]1NC(=O)[C@H](CCCCCC(=O)[C@@H]2CO2)NC(=O)[C@H]2CCCN2C(=O)[C@H](Cc2ccccc2)NC1=O [Alaninechlamydocin, 1-] (cyclo(AF[dP][Aoe])) | 12.83 | -6.34 | 2.42 | 0.98 | 2.60 | 2.26 | –
3 | C=CCNC1=C2C[C@@H](C)C[C@H](OC)[C@H](O)[C@@H](C)/C=C(\C)[C@H](OC(N)=O)[C@@H](OC)/C=C\C=C(/C)C(=O)NC(=CC1=O)C2=O [Allylamino-17-demethoxygeldanamycin, 17-] | 19.67 | 7.18 | 14.05 | 5.13 | -1.02 | -0.21 | –
4 | O=C1c2c(O)cc(O)cc2OC1(O)Cc1ccc(O)c(O)c1 (stereo not drawn) [Alphitonin] | – | 94.83 | 88.31 | 93.84 | 106.55 | 96.34 | Pf_120h_%Growth_Rep1 [1]: 96.34%
5 | Cc1cc(O)cc2oc(=O)c3c(O)cc(O)cc3c12 [Alternariol] | – | – | – | – | – | – | activity at 2 µg/mL [1, 4]: 171%; activity at 2 µg/mL [1, 5]: 90.2%; activity at 2 µg/mL [2, 6]: 84.6%; activity at 2 µg/mL [2, 7]: 91.2%; percent parasite growth at 2 µg/mL [3, 8]: 37.5%; percent parasite growth at 2 µg/mL [3, 9]: 99.9%
6 | C=CC(C)(C)[C@@]12C[C@H]3C(=O)N4[C@@H](C[C@@]5(C(C)(C)C=C)c6ccccc6N[C@@H]45)C(=O)N3[C@@H]1Nc1ccccc12 [Amauromine] | – | – | – | – | – | – | activity at 2 µg/mL [1, 14]: 7.96%; activity at 2 µg/mL [1, 15]: 0.67%; activity at 2 µg/mL [2, 16]: 3.52%; activity at 2 µg/mL [2, 17]: 3.82%; percent parasite growth at 2 µg/mL [3, 18]: 139%; percent parasite growth at 2 µg/mL [3, 19]: 104%
7 | C[C@@H]1[C@H](O)[C@@H](C)/C=C/C=C/C=C/C=C/C=C/C=C/C=C/[C@H](O[C@@H]2O[C@H](C)[C@@H](O)[C@H](N)[C@@H]2O)C[C@@H]2O[C@](O)(C[C@@H](O)C[C@@H](O)[C@H](O)CC[C@@H](O)C[C@@H](O)CC(=O)O[C@H]1C)C[C@H](O)[C@H]2C(=O)O [Amphotericin B] | – | – | – | – | – | – | activity at 2 µg/mL [1, 14]: 77%; activity at 2 µg/mL [1, 15]: 69.3%; activity at 2 µg/mL [2, 16]: 84.3%; activity at 2 µg/mL [2, 17]: 90.2%; percent parasite growth at 2 µg/mL [3, 18]: 101%; percent parasite growth at 2 µg/mL [3, 19]: 86.5%
8 | COCCC[C@H]1O[C@@](O)([C@H](C)C2CC(OC)C(O)/C=C(C)/C=C(C)/C=C(/C)C(O[C@H]3O[C@H](C)[C@@H](OC)[C@H](O)[C@H]3O)C(C)/C=C(CO)/C=C(OC)\C=C(/C)C(=O)O2)[C@H](OC)[C@@H](O)[C@]1(C)O[C@H]1C[C@H](O)[C@H](O[C@H]2C[C@@](C)(O)[C@H](O)[C@@H](C)O2)[C@@H](C)O1 (stereo partly drawn) [Amycolatopsin A] | 67.28 | 94.98 | 76.67 | 110.14 | 96.54 | 72.55 | –
9 | COCCC[C@H]1O[C@@](O)([C@H](C)C2CC(OC)C(O)/C=C(C)/C=C(C)/C=C(/C)C(O[C@H]3O[C@H](C)[C@@H](OC)[C@H](O)[C@H]3O)C(C)/C=C(C)/C=C(OC)\C=C(/C)C(=O)O2)[C@H](OC)[C@@H](O)[C@]1(C)O[C@H]1C[C@H](O)[C@H](O[C@H]2C[C@@](C)(O)[C@H](O)[C@@H](C)O2)[C@@H](C)O1 (stereo partly drawn) [Amycolatopsin B] | 16.58 | 9.62 | 44.61 | 41.71 | 0.29 | 0.85 | –
10 | O=c1cccc2n1C[C@H]1C[C@@H]2CN2CCCC[C@H]12 [Anagyrine] | – | – | – | – | – | – | activity at 2 µg/mL [1, 14]: 106%; activity at 2 µg/mL [1, 15]: 103%; activity at 2 µg/mL [2, 16]: 88.8%; activity at 2 µg/mL [2, 17]: 124%; percent parasite growth at 2 µg/mL [3, 18]: 136%; percent parasite growth at 2 µg/mL [3, 19]: 82.1%
11 | COC(=O)[C@@]12C(=O)C(C)C(=O)[C@]1(C)C(C)=C[C@H]1[C@]3(C=O)CC[C@H](OC(C)=O)C(C)(C)[C@H]3CC[C@@]12C (stereo partly drawn) [Andrastin A] | 133.36 | 82.36 | 79.79 | 84.23 | 90.21 | 88.06 | –
12 | CC(/C=C/C1CC=CC(=O)O1)=C\C(C)C/C=C/C(C)=C/C(C)C(=O)C(C)C(O)C(C)C/C(C)=C/C(=O)O (stereo not drawn) [Anguinomycin A] | 145.35 | 79.09 | 77.34 | 87.20 | 87.81 | 87.77 | –
13 | Cc1c2c(c(O)c3c(O)ccc(Cl)c13)C(=O)[C@]1(O)C(O)=C(C(N)=O)C(=O)[C@@H](N(C)C)[C@@H]1C2.Cl [Anhydrochlortetracycline hydrochloride] | 62.00 | 93.26 | 86.52 | 88.12 | 107.44 | 94.77 | –
14 | CC(C)=C[C@H]1C[C@H](C)[C@]2(CC[C@]3(C)C[C@@H]4C(C)=CC(=O)[C@H]4/C(C=O)=C\C[C@H]32)O1 [Anhydroepiophiobolin A] | -5.12 | 6.51 | 2.50 | 3.83 | 120.33 | 104.77 | –
